Experiments:
Format in all cases: biochemical
[1] = target: T1, Btk (Homo sapiens, UniProt Q06187); assay: Btk in vitro inhibitory activity (one of Method A TR-FRET, Method B electrophoretic mobility shift, Method C radiometric filter binding); details: wild-type Btk; read-out: Btk-WT IC50
T1 construct: purified from insect cells as a full-length construct containing a N-terminal 6X-His tag; His6 (N); made in house; host or cells: insect cells (Method C)
Method in brief: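 Three alternative formats were used. A radiometric filter-binding read used 8 nM full-length His-BTK with 0.2 mg/mL poly(Glu-Tyr) 4:1 (C); microfluidic separation of 1 μM FAM-peptide by 1 nM BTK gave IC50 from 12-point curves (B); TR-FRET at Km ATP, 0.5 nM Btk, gave Ki(app)-derived IC50 (A).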

[2] = target: T2, panel of kinases (Homo sapiens, UniProt P51813); assay: Inhibition of a panel of kinases (in vitro HotSpot kinase assay, 33P-ATP, 1 μM ATP), other kinases; details: BMX wild-type, read-out: BMX-WT IC50
T2 sequence (P51813 1-675): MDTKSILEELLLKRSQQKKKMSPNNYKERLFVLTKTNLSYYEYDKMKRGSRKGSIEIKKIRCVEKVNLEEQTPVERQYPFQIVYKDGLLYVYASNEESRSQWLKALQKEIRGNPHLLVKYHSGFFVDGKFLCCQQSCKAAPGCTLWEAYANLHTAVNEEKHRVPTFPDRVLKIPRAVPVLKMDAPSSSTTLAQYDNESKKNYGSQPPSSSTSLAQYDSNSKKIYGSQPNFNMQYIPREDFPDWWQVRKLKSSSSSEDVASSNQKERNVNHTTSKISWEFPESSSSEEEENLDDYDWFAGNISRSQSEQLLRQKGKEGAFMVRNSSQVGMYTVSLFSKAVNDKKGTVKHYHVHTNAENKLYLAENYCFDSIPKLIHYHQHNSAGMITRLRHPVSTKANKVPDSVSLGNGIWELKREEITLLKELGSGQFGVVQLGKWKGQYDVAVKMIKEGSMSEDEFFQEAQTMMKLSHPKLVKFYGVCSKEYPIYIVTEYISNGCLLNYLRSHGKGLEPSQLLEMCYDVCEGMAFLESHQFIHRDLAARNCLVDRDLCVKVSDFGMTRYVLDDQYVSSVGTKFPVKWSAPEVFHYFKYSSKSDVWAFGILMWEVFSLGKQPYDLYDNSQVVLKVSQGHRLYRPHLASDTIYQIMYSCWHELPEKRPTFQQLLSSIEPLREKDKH
Protocol: Example 63: Inhibition of a Panel of Kinases The degree of inhibition of a panel of kinases is determined using the in vitro HotSpot kinase assay (purified enzymes, ^33P-ATP, an appropriate substrate and 1 μM ATP).

[3] = target: T3, TEC (Homo sapiens, UniProt P42680); assay: Inhibition of a panel of kinases (in vitro HotSpot kinase assay, 33P-ATP, 1 μM ATP); details: for IC50: HotSpot kinase assay, 1 μM ATP
T3 sequence (P42680 1-631): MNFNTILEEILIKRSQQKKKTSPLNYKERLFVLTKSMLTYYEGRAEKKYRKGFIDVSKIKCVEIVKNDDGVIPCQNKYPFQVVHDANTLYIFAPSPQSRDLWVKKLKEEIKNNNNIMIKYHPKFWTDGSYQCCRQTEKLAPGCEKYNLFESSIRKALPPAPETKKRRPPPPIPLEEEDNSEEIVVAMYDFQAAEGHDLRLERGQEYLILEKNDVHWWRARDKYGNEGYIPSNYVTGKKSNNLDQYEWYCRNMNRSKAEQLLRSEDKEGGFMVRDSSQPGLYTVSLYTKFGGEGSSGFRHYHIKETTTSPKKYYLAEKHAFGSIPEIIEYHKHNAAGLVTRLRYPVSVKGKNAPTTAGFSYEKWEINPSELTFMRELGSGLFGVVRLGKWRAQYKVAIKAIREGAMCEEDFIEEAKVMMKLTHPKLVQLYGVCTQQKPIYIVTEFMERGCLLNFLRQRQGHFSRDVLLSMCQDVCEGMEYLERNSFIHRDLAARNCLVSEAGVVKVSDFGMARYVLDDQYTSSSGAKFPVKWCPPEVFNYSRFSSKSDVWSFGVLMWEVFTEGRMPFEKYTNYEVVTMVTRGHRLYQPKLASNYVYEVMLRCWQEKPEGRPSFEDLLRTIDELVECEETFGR
Method in brief: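 Radiometric read-out: 33P transfer to a suitable substrate by each purified enzyme, ATP at 1 μM. Values are degree of inhibition.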

T1 sequence (Q06187 whole entry): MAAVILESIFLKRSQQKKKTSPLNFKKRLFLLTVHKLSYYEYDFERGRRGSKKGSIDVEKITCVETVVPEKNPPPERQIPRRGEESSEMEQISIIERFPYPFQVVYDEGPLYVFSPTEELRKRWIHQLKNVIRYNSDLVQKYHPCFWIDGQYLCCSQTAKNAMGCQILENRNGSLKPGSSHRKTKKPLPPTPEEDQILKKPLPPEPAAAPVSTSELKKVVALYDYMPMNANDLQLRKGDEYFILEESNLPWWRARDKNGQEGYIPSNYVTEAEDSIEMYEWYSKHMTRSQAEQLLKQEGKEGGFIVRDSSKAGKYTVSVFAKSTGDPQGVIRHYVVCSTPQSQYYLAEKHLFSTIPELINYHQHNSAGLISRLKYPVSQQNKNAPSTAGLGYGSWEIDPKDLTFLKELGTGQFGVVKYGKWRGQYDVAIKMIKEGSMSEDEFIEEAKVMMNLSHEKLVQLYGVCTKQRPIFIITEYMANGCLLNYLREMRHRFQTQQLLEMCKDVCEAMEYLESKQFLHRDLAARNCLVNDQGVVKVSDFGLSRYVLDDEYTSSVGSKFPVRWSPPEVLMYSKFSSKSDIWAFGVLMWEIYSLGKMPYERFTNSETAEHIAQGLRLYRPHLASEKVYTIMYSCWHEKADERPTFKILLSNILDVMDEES

IC50 [1] [µM]	IC50 [2] [µM]	TEC/Btk ([3]; ratio of TEC IC50 to Btk IC50 (selectivity))	IC50 [3] [µM]	SMILES
0.719	7	–	–	O=C(NCc1ccc(-c2ccnc3[nH]nc(NC4CCNC4)c23)cc1F)c1ccc2c(c1)OCCCO2 (stereo not shown) [Example 350, N-[(2-fluoro-4-{3-[(pyrrolidin-3-yl)amino]-1H-pyrazolo[3,4-b]pyridin-4-yl}phenyl)methyl]-3,4-dihydro-2H-1,5-benzodioxepine-7-carboxamide]
0.0273	7.21	–	–	C[C@@H](NC(=O)c1nc(C(C)(C)C)no1)c1ccc(-c2ccnc3[nH]nc(NC4CCN(S(C)(=O)=O)CC4)c23)cc1 [Example 387, 3-tert-butyl-N-{(1R)-1-[4-(3-{[1-(methanesulfonyl)piperidin-4-yl]amino}-1H-pyrazolo[3,4-b]pyridin-4-yl)phenyl]ethyl}-1,2,4-oxadiazole-5-carboxamide]
0.625	5.73	–	–	C[C@@H](NC(=O)c1cc(C(C)(C)O)on1)c1ccc(-c2ccnc3[nH]nc(NC4CCOC4)c23)cc1 (stereo partly drawn) [Example 398, 5-(2-hydroxypropan-2-yl)-N-[(1R)-1-(4-{3-[(oxolan-3-yl)amino]-1H-pyrazolo[3,4-b]pyridin-4-yl}phenyl)ethyl]-1,2-oxazole-3-carboxamide]
0.677	9.58	–	–	CC(C)c1cc(C(=O)NCc2ccc(-c3ccnc4[nH]nc(N[C@@H]5CCCN(C(=O)N(C)C)[C@@H]5C)c34)cc2F)no1 [Example 305, (2R,3R)-3-({4-[3-fluoro-4-({[5-(propan-2-yl)-1,2-oxazole-3-carbonyl]amino}methyl)phenyl]-1H-pyrazolo[3,4-b]pyridin-3-yl}amino)-N,N,2-trimethylpiperidine-1-carboxamide]
0.0935	7.86	–	–	CC(C)(C)c1nc(C(=O)NCc2ccc(-c3ccnc4[nH]nc(C5CCNC5)c34)cc2F)no1 (stereo not shown) [Example 278, 5-tert-butyl-N-({2-fluoro-4-[3-(pyrrolidin-3-yl)-1H-pyrazolo[3,4-b]pyridin-4-yl]phenyl}methyl)-1,2,4-oxadiazole-3-carboxamide]
0.147	8.43	–	–	CC(C)(C)c1nc(C(=O)NCc2ccc(-c3ccnc4[nH]nc(C[C@H]5CCNC5)c34)cc2F)no1 [Example 274, (R)-5-tert-butyl-N-[(2-fluoro-4-{3-[(pyrrolidin-3-yl)methyl]-1H-pyrazolo[3,4-b]pyridin-4-yl}phenyl)methyl]-1,2,4-oxadiazole-3-carboxamide]
–	8.66	–	–	C[C@@H]1[C@H](Nc2n[nH]c3nccc(-c4ccc(CNC(=O)c5cc(C(C)(C)O)on5)c(F)c4)c23)CCCN1C(=O)N(C)C [Example 316, (2R,3R)-3-({4-[3-fluoro-4-({[5-(2-hydroxypropan-2-yl)-1,2-oxazole-3-carbonyl]amino}methyl)phenyl]-1H-pyrazolo[3,4-b]pyridin-3-yl}amino)-N,N,2-trimethylpiperidine-1-carboxamide]
0.0105	6.92	–	–	C[C@@H](NC(=O)c1nc(C(C)(C)C)no1)c1ccc(-c2ccnc3[nH]nc(NC4CCN(S(C)(=O)=O)C4)c23)cc1 (stereo partly drawn) [Example 386, 3-tert-butyl-N-{(1R)-1-[4-(3-{[1-(methanesulfonyl)pyrrolidin-3-yl]amino}-1H-pyrazolo[3,4-b]pyridin-4-yl)phenyl]ethyl}-1,2,4-oxadiazole-5-carboxamide]
–	9.78	–	–	C[C@@H](NC(=O)c1cc(C(C)(C)O)on1)c1ccc(-c2ccnc3[nH]nc(NC4CCS(=O)(=O)CC4)c23)cc1 [Example 385, N-[(1R)-1-(4-{3-[(1,1-dioxo-1λ^6-thian-4-yl)amino]-1H-pyrazolo[3,4-b]pyridin-4-yl}phenyl)ethyl]-5-(2-hydroxypropan-2-yl)-1,2-oxazole-3-carboxamide]
0.0483	5.5	–	–	CC(=O)N[C@@H]1CCN(c2n[nH]c3nccc(-c4ccc([C@@H](C)NC(=O)c5cc(C(C)(C)O)on5)cc4)c23)C1 [Example 363, N-[(1R)-1-(4-{3-[(3R)-3-acetamidopyrrolidin-1-yl]-1H-pyrazolo[3,4-b]pyridin-4-yl}phenyl)ethyl]-5-(2-hydroxypropan-2-yl)-1,2-oxazole-3-carboxamide]
0.901	2.03	–	–	O=C(NCc1ccc(-c2ccnc3[nH]nc(NC4CCNC4)c23)cc1F)c1cc(Cl)on1 (stereo not shown) [Example 341, 5-chloro-N-[(2-fluoro-4-{3-[(pyrrolidin-3-yl)amino]-1H-pyrazolo[3,4-b]pyridin-4-yl}phenyl)methyl]-1,2-oxazole-3-carboxamide]
–	2.58	10	–	OCc1ccc(-c2ccnc3[nH]nc(N[C@H]4CC[C@H](O)CC4)c23)cc1F [Compound 11]
–	3.02	–	4.47	CC(C)(C)c1ccc(C(=O)NCc2ccc(-c3ccnc4[nH]nc(NC5CCNC5)c34)cn2)cc1 (stereo not shown) [Example 268, 4-tert-butyl-N-[(5-{3-[(pyrrolidin-3-yl)amino]-1H-pyrazolo[3,4-b]pyridin-4-yl}pyridin-2-yl)methyl]benzamide]
–	5.2	–	–	C[C@@H](NC(=O)c1cc(C(C)(C)O)on1)c1ccc(-c2ccnc3[nH]nc(NC4CCOCC4)c23)cc1 [Example 400, 5-(2-hydroxypropan-2-yl)-N-[(1R)-1-(4-{3-[(oxan-4-yl)amino]-1H-pyrazolo[3,4-b]pyridin-4-yl}phenyl)ethyl]-1,2-oxazole-3-carboxamide]
–	4.32	–	9.27	C[C@@H](NC(=O)c1cc(C(C)(C)O)on1)c1ccc(-c2ccnc3[nH]nc(NC4CCCCC4)c23)cc1 [Example 399, N-[(1R)-1-{4-[3-(cyclohexylamino)-1H-pyrazolo[3,4-b]pyridin-4-yl]phenyl}ethyl]-5-(2-hydroxypropan-2-yl)-1,2-oxazole-3-carboxamide]
–	6.55	–	–	C[C@@H]1[C@H](Nc2n[nH]c3nccc(-c4ccc(CNC(=O)c5cc(C(C)(C)N)on5)c(F)c4)c23)CCCN1C(=O)N(C)C [Example 317, (2R,3R)-3-({4-[4-({[5-(2-aminopropan-2-yl)-1,2-oxazole-3-carbonyl]amino}methyl)-3-fluorophenyl]-1H-pyrazolo[3,4-b]pyridin-3-yl}amino)-N,N,2-trimethylpiperidine-1-carboxamide]
–	5.04	–	–	Cc1c(NC(=O)c2noc(C(C)(C)C)n2)cccc1-c1ccnc2[nH]nc(N[C@@H]3CCNC3)c12 [Example 266, 5-tert-butyl-N-[2-methyl-3-(3-{[(3R)-pyrrolidin-3-yl]amino}-1H-pyrazolo[3,4-b]pyridin-4-yl)phenyl]-1,2,4-oxadiazole-3-carboxamide]
–	4.86	–	–	Cc1nc(C(=O)NCc2ccc(-c3ccnc4[nH]nc(N[C@@H]5CC[C@H](C)N(C(=O)N(C)C)C5)c34)cc2F)oc1C [Example 194, (2S,5R)-5-{[4-(4-{[(4,5-dimethyl-1,3-oxazole-2-carbonyl)amino]methyl}-3-fluorophenyl)-1H-pyrazolo[3,4-b]pyridin-3-yl]amino}-N,N,2-trimethylpiperidine-1-carboxamide]
–	1.72	–	–	CN(C)C(=O)N1CC[C@@H](Nc2n[nH]c3nccc(-c4ccc(CNC(=O)c5cc(Cl)on5)c(F)c4)c23)C1 [Example 343, 5-chloro-N-{[4-(3-{[(3R)-1-(dimethylcarbamoyl)pyrroli-din-3-yl]amino}-1H-pyrazolo[3,4-b]pyridin-4-yl)-2-fluorophenyl]methyl}-1,2-oxazole-3-carboxamide]
